Laboratory results reported in ChEMBL document CHEMBL1817609, “SAR studies of 4-pyridyl heterocyclic anilines that selectively induce autophagic cell death in von Hippel-Lindau-deficient renal cell carcinoma cells” (Bioorg Med Chem, 2011).
pIC50: −log10 of the molar value.

Experiments:
[1] = Growth inhibition of human RCC4 cells after 4 days by XTT assay; format: functional, cell-based; conditions: RCC4, 96 h; for IC50: read-out: pIC50 (converted); for pIC50: read-out: IC50
[2] = Selectivity ratio IC50 for human RCC4/VHL cells to IC50 for human RCC4 cells; format: functional
[3] = Growth inhibition of human RCC4/VHL cells after 4 days by XTT assay; format: functional, cell-based; conditions: 96 h

Row | Structure (SMILES) | IC50 [1] [µM] | Ratio IC50 [2] | pIC50 [1] | pIC50 [3]
1 | COc1ccc(Nc2nc(-c3ccncc3)cs2)cc1 | 14.1 | – | – | –
2 | Cc1cccc(Nc2nc(-c3ccnc(-c4cccc5[nH]ccc45)c3)cs2)c1 | 3.16 | 1.5 | 5.51 | 5.35
3 | Cc1sc(Nc2ccc3c(c2)CCC3)nc1-c1ccncc1 | 12 | – | – | –
4 | Cc1cccc(Nc2nc(-c3ccncc3N3CCN(C)CC3)cs2)c1 | 2.63 | 2.5 | 5.59 | 5.18
5 | Cc1cccc(Nc2nc(-c3ccncc3)c(CN3CCOCC3)s2)c1 | 2.51 | – | – | –
6 | Cc1cccc(Nc2nc(-c3ccncc3-c3ccncc3)cs2)c1 | 13.8 | 2.5 | 4.86 | 4.47
7 | Cc1ccc(Nc2nc(-c3ccncc3)cs2)cc1 | 2.51 | – | – | –
8 | CN(C)CCOc1ccc(Nc2nc(-c3ccncc3)cs2)cc1 | 60.3 | – | – | –
9 | Cc1cccc(Nc2nc(-c3ccncc3NCCN3CCOCC3)cs2)c1 | 19.5 | 1.4 | 4.71 | 4.55
10 | Cc1cccc(Nc2nc(-c3ccnc(C)c3)cs2)c1 | 28.8 | – | – | –
11 | Oc1ccc(Nc2nc(-c3ccncc3)cs2)cc1 | 5.37 | – | – | –
12 | O=[N+]([O-])c1ccccc1Nc1nc(-c2ccncc2)cs1 | 40.7 | – | – | –
13 | Cc1cccc(Nc2nc(-c3ccncc3)c(C(N)=O)s2)c1 | 19.5 | – | – | –
14 | Cc1cccc(Nc2nc(-c3ccncc3-c3ccc(C(C)C)cc3)cs2)c1 | 40.7 | – | < 4.40 | < 4.40
15 | Cc1cccc(Nc2nc(-c3ccnc(-c4cnn(C)c4)c3)cs2)c1 | 5.25 | 1.6 | 5.28 | 5.09
16 | Cc1cccc(Nc2nc(-c3ccncc3)c(C(=O)N(C)C)s2)c1 | 16.2 | – | – | –
17 | CC(C)c1cccc(Nc2nc(-c3ccncc3)cs2)c1 | 17.4 | – | – | –
18 | Cc1cccc(Nc2nc(-c3ccncc3C#CCCO)cs2)c1 | 1.1 | 2.5 | 5.96 | 5.55
19 | Cc1cccc(Nc2cccc(-c3ccncc3)c2)c1 | 37.2 | 1 | 4.43 | 4.42
20 | Cc1cccc(Nc2nc(-c3ccncc3Br)cs2)c1 | 3.98 | – | – | –
21 | Cc1cccc(Nc2nc(-c3ccnc(N4CCN(C)CC4)c3)cs2)c1 | 11.7 | 2.8 | 4.94 | 4.50

Row | Structure (SMILES) | IC50 [1] [µM] | Ratio IC50 [2] | pIC50 [1] | pIC50 [3]
22 | Cc1cccc(Nc2cncc(-c3ccncc3)n2)c1 | 8.51 | 3.7 | 5.07 | 4.50
23 | Cc1cccc(Nc2nc(-c3ccncc3)c[nH]2)c1 | 40.7 | – | < 4.40 | < 4.40
24 | CCc1cc(-c2csc(Nc3cccc(C)c3)n2)ccn1 | 6.46 | – | – | –
25 | Cc1cccc(Nc2nc(-c3ccnc(-c4cn(Cc5ccccc5)nn4)c3)cs2)c1 | 2.14 | 6.7 | 5.68 | 4.85
26 | Cc1cccc(Nc2nc(-c3ccncc3-c3ccc(S(=O)(=O)NC(C)(C)C)cc3)cs2)c1 | 4.57 | 5 | 5.35 | 4.65
27 | Clc1cccc(Nc2nc(-c3ccncc3)cs2)c1 | 3.02 | – | – | –
28 | Cc1cccc(Nc2cccc(-c3ccncc3)n2)c1 | 7.41 | >5.4 | 5.13 | < 4.40
29 | Cc1cccc(Nc2nc(-c3ccncc3C#CCN3CCN(C)CC3)cs2)c1 | 2.63 | 0.9 | 5.59 | 5.66
30 | Cc1cccc(Nc2nc(-c3ccnc(Cl)c3)cs2)c1 | 2.24 | – | – | –
31 | Cc1cccc(Nc2nccc(-c3ccncc3)n2)c1 | 6.61 | 1.3 | 5.19 | 5.07
32 | CCc1cnccc1-c1csc(Nc2cccc(C)c2)n1 | 6.31 | – | – | –
33 | C#Cc1cc(-c2csc(Nc3cccc(C)c3)n2)ccn1 | 18.2 | – | – | –
34 | c1ccc(Nc2nc(-c3ccncc3)cs2)cc1 | 7.08 | >10 | 5.15 | < 4.15
35 | CCN(c1cccc(C)c1)c1nc(-c2ccncc2)cs1 | 40.7 | – | – | –
36 | Cc1cccc(Nc2nc(-c3ccnc(Br)c3)cs2)c1 | 2.04 | – | – | –
37 | Cc1cccc(Nc2nc(-c3ccncc3)c(CCCO)s2)c1 | 3.63 | – | – | –
38 | Cc1cccc(Nc2nc(-c3ccncc3C)cs2)c1 | 5.25 | – | – | –
39 | Cc1cccc(Nc2nc(-c3cc(Cl)nc(Cl)c3)cs2)c1 | 15.1 | – | – | –
40 | Cc1cccc(Nc2nc(-c3ccncc3-c3ccccc3)cs2)c1 | 11.7 | 2.9 | 4.94 | 4.48
41 | OCCc1ccc(Nc2nc(-c3ccncc3)cs2)cc1 | 5.01 | – | – | –
42 | Cc1cccc(Nc2nc(-c3ccnc(F)c3)cs2)c1 | 4.57 | – | – | –

Row | Structure (SMILES) | IC50 [1] [µM] | Ratio IC50 [2] | pIC50 [1] | pIC50 [3]
43 | Cc1cccc(Nc2nc(-c3ccncc3C#CCCCO)cs2)c1 | 6.3 | – | 5.20 | 6.52
44 | CN(C)CCc1ccc(Nc2nc(-c3ccncc3)cs2)cc1 | 50.1 | – | – | –
45 | COc1ccccc1Nc1nc(-c2ccncc2)cs1 | 33.9 | – | – | –
46 | Cc1cccc(Nc2nc(-c3ccncc3)c(CN3CCCCC3)s2)c1 | 13.2 | – | – | –
47 | COc1cccc(Nc2nc(-c3ccncc3)cs2)c1 | 3.02 | – | – | –
48 | Cc1ccc(Nc2nc(-c3ccncc3)cs2)cc1C | 6.61 | – | – | –
49 | Fc1cccc(Nc2nc(-c3ccncc3)cs2)c1 | 40.7 | – | – | –
50 | Brc1cccc(Nc2nc(-c3ccncc3)cs2)c1 | 40.7 | – | – | –
51 | c1cc(-c2csc(Nc3ccc4c(c3)CCC4)n2)ccn1 | 2.04 | – | – | –
52 | COc1ccc(Nc2nc(-c3ccncc3)cs2)cc1OC | 24.5 | – | – | –
53 | Cc1cccc(Nc2nc(-c3ccncc3-c3cn(Cc4ccccc4)nn3)cs2)c1 | 40.7 | – | < 4.40 | < 4.40
54 | Cc1cccc(Nc2nc(-c3ccncc3CCCO)cs2)c1 | 6.92 | – | – | –
55 | Cc1cccc(Nc2nc(-c3ccncc3Cl)cs2)c1 | 2.95 | – | – | –
56 | Clc1ccc(Nc2nc(-c3ccncc3)cs2)cc1 | 38 | – | – | –
57 | C#Cc1cnccc1-c1csc(Nc2cccc(C)c2)n1 | 1.38 | – | – | –
58 | Cc1cccc(Nc2nc(-c3ccncc3)c(C)s2)c1 | 10 | – | – | –
59 | CCc1cccc(Nc2nc(-c3ccncc3)cs2)c1 | 2.51 | – | – | –
60 | Oc1ccccc1Nc1nc(-c2ccncc2)cs1 | 12.9 | – | – | –
61 | OCc1sc(Nc2ccccc2)nc1-c1ccncc1 | 30.2 | – | – | –
62 | Fc1ccccc1Nc1nc(-c2ccncc2)cs1 | 14.5 | – | – | –
63 | CC(C)(C)c1cccc(Nc2nc(-c3ccncc3)cs2)c1 | 60.3 | – | – | –

Row | Structure (SMILES) | IC50 [1] [µM] | Ratio IC50 [2] | pIC50 [1] | pIC50 [3]
64 | Clc1ccc(Nc2nc(-c3ccncc3)cs2)cc1Cl | 13.8 | – | – | –
65 | Cc1cccc(Nc2nc(-c3ccncc3)c(CCCN3CCOCC3)s2)c1 | 5.89 | – | – | –
66 | FC(F)(F)c1ccccc1Nc1nc(-c2ccncc2)cs1 | 40.7 | – | – | –
67 | Cc1cccc(N(C)c2nc(-c3ccncc3)cs2)c1 | 28.2 | – | – | –
68 | FC(F)(F)c1ccc(Nc2nc(-c3ccncc3)cs2)cc1 | 40.7 | – | – | –
69 | COC(=O)C=CC(=O)c1sc(Nc2cccc(C)c2)nc1-c1ccncc1 | 2.51 | – | – | –
70 | Cc1cccc(Nc2nc(-c3ccnc(-c4cccc(F)n4)c3)cs2)c1 | > 40 | – | < 4.40 | < 4.40
71 | Cc1ccc(Nc2nc(-c3ccncc3)cs2)cc1O | 12 | – | – | –
72 | Cc1cc(C)cc(Nc2nc(-c3ccncc3)cs2)c1 | 4.57 | – | – | –
73 | Cc1cccc(Nc2nnc(-c3ccncc3)n2C)c1 | 40.7 | – | < 4.40 | < 4.40
74 | Cc1cccc(Nc2nc(-c3ccncc3-c3ccc(C(N)=O)cc3)cs2)c1 | 4.17 | – | 5.39 | 5.80
75 | Cc1cc(Nc2nc(-c3ccncc3)cs2)ccc1O | 70.8 | – | – | –
76 | Clc1ccccc1Nc1nc(-c2ccncc2)cs1 | 28.2 | – | – | –
77 | Fc1ccc(Nc2nc(-c3ccncc3)cs2)cc1 | 6.03 | – | – | –
78 | Cc1cccc(Nc2nnc(-c3ccncc3)o2)c1 | 40.7 | – | < 4.40 | < 4.40
79 | Cc1cccc(Nc2nc(-c3ccncc3)c(CN(C)C)s2)c1 | 16.2 | – | – | –
80 | Cc1cccc(Nc2nc(-c3ccncc3)co2)c1 | 40.7 | – | < 4.40 | < 4.40
81 | Cc1cccc(Nc2nc(-c3ccnc(CCCO)c3)cs2)c1 | 5.25 | – | – | –
82 | Oc1cccc(Nc2nc(-c3ccncc3)cs2)c1 | 28.8 | – | – | –
